This is an account of results in PubChem BioAssay AID493130 (Broad Institute, 2011).

Structures are written as SMILES. Results filed as inconclusive are left out. Activity calls are given as the source filed them.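 How the source made its calls: active means signal-lowering compounds whose fitted half-maximal concentration is at most ten times their highest tested dose; inconclusive means flat fit between -30 and -70%, or poor fit; inactive means flat within 30%, signal rising, or potency beyond limit.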

The first assay addresses POS-1 (Caenorhabditis elegans) binding to mex-3 RNA. In words: inhibitors of POS-1/mex-3 RNA binding, dose response, counter-screen for MEX-5 RNA-binding inhibitor project, biochemical, fluorescence polarization, cherry-picked samples, set 2 (AID 493130).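 Further: POS-1 as maltose binding protein fusion made in E. coli with FITC RNA.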 The note with it: POS-1/mex-3 RNA fluorescence polarization, 1 h. (Counterscreens check selectivity or assay interference.)
A word on the AC50: it is the concentration at which the activity in the assay is half-maximal. Regarding `CCn1c(SCc2nc3sc(C(=O)O)c(C)c3c(=O)[nH]2)nc2ccccc21`, the half-maximal activity concentration (AC50) was 10.3 µM. In the case of `CCc1ccc[n+](-c2[nH]c(=O)sc2/C=N/NC([S-])=Nc2ccccc2)c1`, the AC50 was 2.54 µM. Still for that read-out and setting: the value for `CN(CCC#N)C(=O)COC(=O)c1c2c(nc3ccccc13)/C(=C/c1ccco1)CC2` was > 10 µM (inactive). `CCCCOc1ccc2c(c1)/C(=C(\C(Cl)=C(Cl)Cl)[N+](=O)[O-])N2`: the concentration at half-maximal activity (AC50) was 8.54 µM.

As for `CCCCN1C(=O)C2Cc3c([nH]c4ccccc34)CN2C1=S` (configuration not stated), the concentration at half-maximal activity (AC50) was 8.04 µM.

Regarding `CCCC1=NN2C(=N)/C(=C\c3ccc(SCc4ccco4)o3)C(=O)N=C2S1`, the concentration at half-maximal activity (AC50) was 0.699 µM.

Regarding `CCc1cc[n+](-c2nc3ccccc3nc2[N-]S(=O)(=O)c2ccc(Br)s2)cc1`, the AC50 was 1.25 µM.

The same assay, now with this note: POS-1/mex-3 RNA fluorescence polarization, 1 h; at 10 µM (top of the series).
`COc1ccc(CCn2c(=N)c(C(=O)NCC3CCCO3)cc3c(=O)n4ccccc4nc32)cc1` (configuration not stated): the “activity change, negative = inhibition” value is “inactive”. The same measure, in the same setting: the value for `C=CCn1c(O)c(N=NC(=O)CNC(=O)/C=C/c2ccco2)c2ccccc21` was “inactive”. On to `CCOc1ccc(/C=C/C(=O)c2ccccc2)cc1`, for which the “activity change, negative = inhibition” value is “inactive”. For the compound `COc1ccc(C(CC(=O)N2CCCC2)c2c(OC)cc(OC)c3ccc(=O)oc23)cc1` (configuration not stated), the “activity change, negative = inhibition” value was “inactive”. `Cc1ccc(C(=O)N/C(=C\c2ccc(-c3cccc([N+](=O)[O-])c3)o2)C(=O)NCCCN(C)C)cc1`: the “activity change, negative = inhibition” value was “inactive”. On to `C=CCn1c(Cc2nc3ccc(Cl)cc3[nH]2)n[nH]c1=S`, for which the “activity change, negative = inhibition” value was “inactive”. With `O=C1c2cccc3cccc(c23)C(=O)N1Cc1ccccc1`, the “activity change, negative = inhibition” value was “inactive”.

Take `COC(=O)c1cccc(-c2ccc(C(c3c(C)[nH][nH]c3=O)c3c(C)[nH][nH]c3=O)o2)c1`: the “activity change, negative = inhibition” value was “inactive”.

For `COC(=O)/C(C#N)=C/c1c(-c2ccccc2)nc2n1CCS2`, the “activity change, negative = inhibition” value is “inactive”. On the same count and under the same terms, the value for `N=c1c(C(=O)NC2CCCC2)cc2c(=O)n3ccccc3nc2n1C1CCCC1` was “inactive”; that for `O=C(O)c1cc(Oc2ccc(C(F)(F)F)cc2Cl)ccc1[N+](=O)[O-]` was “inactive”; that for `COc1ccc(/C=C2\C(=O)NC(=S)N2C(=O)c2ccc(C)cc2)cc1` was “inactive”. Still for that read-out and setting: the value for `COc1ccc(/C=C2\SC(=S)N(CCCC(=O)Nc3ccccn3)C2=O)cc1OC` was “inactive”. On the same count and under the same terms, the value for `CC1=Nc2cccc3cccc(c23)N1C` was “inactive”; that for `O=C(N/N=C/c1cccnc1)c1ccccc1` was “inactive”; that for `COC(=O)CCC(=O)OC1(C)C(=O)C2=CN(Cc3ccccc3)C(c3ccc(OC)cc3)=CC2=C(Br)C1=O` (configuration not stated) was “inactive”.

As to `O=C(O)CC1S/C(=N/N=C/c2ccc(-c3ccccc3[N+](=O)[O-])o2)NC1=O` (configuration not stated), the “activity change, negative = inhibition” value was “inactive”. `O=C1N=C(N2C=CC(=C3C=CNC=C3)C=C2)/C(=C/N=NC(=O)c2ccccc2)S1`: the “activity change, negative = inhibition” value is “inactive”. For the compound `CN(C)c1ccc(/C=N/NC(=O)c2cnc3ccccc3c2)cc1`, the “activity change, negative = inhibition” value is “inactive”. In the case of `Cn1c(O)c(N=Nc2ccc(F)cc2)c2ccccc21`, the “activity change, negative = inhibition” value is “inactive”. In the case of `CCCCN(C(=O)c1ccc(C)o1)c1c(N)n(CCCC)c(=O)[nH]c1=O`, the “activity change, negative = inhibition” value was “inactive”. Consider `CC1=C(C(=O)OCc2ccccc2)C(c2ccc(N(C)C)cc2)NC(=O)N1` (configuration not stated), for which the “activity change, negative = inhibition” value was “inactive”. Consider `O=C(CN1C(=O)/C(=C/c2cccc(Br)c2)SC1=S)NC1=NCCS1`, for which the “activity change, negative = inhibition” value is “inactive”.

On to `Cc1ccc2c(c1)-c1ccccc1S(=O)(=O)N2`, for which the “activity change, negative = inhibition” value was “inactive”. On to `C[n+]1c2ccccc2nc2ccc(NCCO)cc21`, for which the “activity change, negative = inhibition” value is “inactive”.

In the case of `NC1=NC(=O)/C(=C\C=C\c2ccccc2)S1`, the “activity change, negative = inhibition” value is “inactive”. Take `CCc1nnc(NC(=O)CCN2C(=O)/C(=C/c3cc(OC)c(OC)c(OC)c3)SC2=S)s1`: the “activity change, negative = inhibition” value is “inactive”.

Consider `Cc1ccc(C(=O)N/N=C\c2cc(Br)c(Br)o2)cn1`, for which the “activity change, negative = inhibition” value was “inactive”.

For `CN1CCc2c(sc(NC(=O)c3ccc(S(=O)(=O)N4CCCCCC4)cc3)c2C(N)=O)C1`, the “activity change, negative = inhibition” value was “inactive”. The same measure, in the same setting: the same measure for `CN(C)S(=O)(=O)c1ccc(Cl)c(C(=O)Nc2cccc3ncccc23)c1`: “inactive”; for `O=C1NC(=O)/C(=C/c2ccc(N3CCOCC3)o2)N1`: “inactive”. On to `O=C(N/N=C/c1c(O)n(Cc2ccco2)c(=O)[nH]c1=O)c1ccccc1`, for which the “activity change, negative = inhibition” value is “inactive”. Take `Cc1ccc(O)c(N=CC2=C(O)c3ccccc3C2=O)c1`: the “activity change, negative = inhibition” value was “inactive”. Same read-out and setting: the same measure for `O=C(Nc1ccc(OCc2ccccc2)cc1)Nc1cccnc1`: “inactive”; for `CCOC(=O)c1sc2nc(C)[nH]c(=S)c2c1C`: “inactive”. Turning to `COc1ccc(C2c3sc(=O)[nH]c3SCC2C(N)=O)cc1` (configuration not stated), the “activity change, negative = inhibition” value was “inactive”. As for `C/C=C(\C)CN1CCC(n2nccc2NC(=O)CCCc2ccccc2)CC1`, the “activity change, negative = inhibition” value is “inactive”. On the same count and under the same terms, the value for `Cc1nc2cc(C(=O)O)ccc2n1-c1ccc(F)cc1F` was “inactive”.

Turning to `CCCCCC(=O)N(Cc1ccccc1)c1c(N)n(CCOC)c(=O)[nH]c1=O`, the “activity change, negative = inhibition” value is “inactive”.

With `Cc1snc2sc(C(=O)c3ccc(Br)cc3)c(N)c12`, the “activity change, negative = inhibition” value is “inactive”. As to `O=S1(=O)c2ccccc2N=NN1Cc1ccc(Cl)c(Cl)c1`, the “activity change, negative = inhibition” value was “inactive”. `Cc1ccc(O)c(-c2cc(C(=O)Nc3ccc(S(=O)(=O)Nc4nc(C)cc(C)n4)cc3)[nH]n2)c1`: the “activity change, negative = inhibition” value was “inactive”.

Consider `Cn1c(=O)c2c(nc(NN=C3CCCCC3)n2C)n(C)c1=O`, for which the “activity change, negative = inhibition” value was “inactive”.

Consider `O=C(O)CCCN1C(=O)/C(=C\c2ccc(-c3nc4ccccc4s3)o2)SC1=S`, for which the “activity change, negative = inhibition” value was “inactive”.

As to `CCn1c(O)c(N=NC(=O)CNC(=O)/C=C/c2ccco2)c2ccccc21`, the “activity change, negative = inhibition” value was “inactive”. In the case of `O=C(/C=C(\O)c1ccccc1)C(=O)NNC(=O)c1ccccc1`, the “activity change, negative = inhibition” value is “inactive”. Same read-out and setting: the value for `CC(=O)CCS(=O)(=O)c1ccc(Oc2ccc(S(=O)(=O)CCC(C)=O)cc2)cc1` was “inactive”; that for `O=c1[nH]cnc2c1C(c1ccccc1[N+](=O)[O-])c1c(nc[nH]c1=O)O2` was “inactive”; that for `O=C(O)c1c2c(nc3ccccc13)/C(=C/c1ccc(O)cc1)CC2` was “inactive”. Take `CC(C)OC(=O)c1c2c(n3ccccc13)C(=O)c1ccccc1C2=O`: the “activity change, negative = inhibition” value was “inactive”.

Consider `CC1(C)NC(=O)NC2(C)NC(=O)NC(C)(C)C12` (configuration not stated), for which the “activity change, negative = inhibition” value was “inactive”. As to `Cc1c(-c2ccc(F)cc2)nc(N)c(C#N)c1-c1ccco1`, the “activity change, negative = inhibition” value is “inactive”. Take `Cc1ccc(C(=O)N/C(=C\c2ccc(-c3ccc(Cl)cc3)o2)C(=O)NCCCN(C)C)cc1`: the “activity change, negative = inhibition” value is “inactive”.

On to `O=Nc1[nH]c(=O)c(/C=C(\O)c2ccccc2)nc1NO`, for which the “activity change, negative = inhibition” value was “inactive”. On to `O=C(Nc1cccnc1)c1cccs1`, for which the “activity change, negative = inhibition” value was “inactive”. On to `O=C(CCc1ccccc1)N/N=C\c1cc2c(cc1Br)OCO2`, for which the “activity change, negative = inhibition” value was “inactive”. On to `Cc1cc2n(n1)C(c1c[nH]c3ccccc13)Nc1ccccc1-2` (configuration not stated), for which the “activity change, negative = inhibition” value was “inactive”. On to `Cc1c(C#N)c(O)n(CCO)c(=O)c1N=Nc1ccccc1`, for which the “activity change, negative = inhibition” value is “inactive”.

Consider `Cc1cc(C)c2c3c(sc2n1)C(c1ccccc1)C(C#N)=C(N)O3` (configuration not stated), for which the “activity change, negative = inhibition” value was “inactive”.

Take `CCOc1ccc(/C=C2\SC(=S)N(Nc3ccccc3)C2=O)cc1OC`: the “activity change, negative = inhibition” value was “inactive”. Regarding `Cc1ccc(S(=O)(=O)c2cc3c(=O)n4cccc(C)c4nc3n(C3CCCCC3)c2=N)cc1`, the “activity change, negative = inhibition” value was “inactive”. As for `CCc1ccc(/C=C2/C(=O)N(CC)C(=S)N2C)s1`, the “activity change, negative = inhibition” value is “inactive”. Consider `O=c1c2ccccc2nc(/C=C/c2ccc([N+](=O)[O-])cc2)n1CCCO`, for which the “activity change, negative = inhibition” value is “inactive”. The same measure, in the same setting: the value for `CN1CCc2c(sc(NC(=O)C3CCCN3S(=O)(=O)c3ccc(Cl)s3)c2C(N)=O)C1` (configuration not stated) was “inactive”; that for `COc1ccccc1-n1c(C)nc2cc(C(=O)NCc3ccc4c(c3)OCO4)ccc21` was “inactive”; that for `CCN(CC)c1ccc2nc3ccccc3[n+](CC)c2c1` was “inactive”. With `COc1ccc2c(c1)NC(c1ccc(N(C)C)cc1)c1cccn1-2` (configuration not stated), the “activity change, negative = inhibition” value is “inactive”. `CCn1c(C)nc2c1C(=O)c1ccccc1C2=O`: the “activity change, negative = inhibition” value was “inactive”. Same read-out and setting: the value for `O=C1OC2(CCCC2)OC(=O)C1=Cc1c[nH]c2ccccc12` was “inactive”.

Regarding `COc1ccc(CC(=O)NNc2ncnc3c2cnn3C)cc1OC`, the “activity change, negative = inhibition” value is “inactive”. As for `O=C(O)CCCC(=O)NNc1nc(-c2ccccc2)c2cc(Cl)ccc2n1`, the “activity change, negative = inhibition” value was “inactive”. The same measure, in the same setting: the value for `COc1ccc(OC)c(/C=C/C(=O)Nc2ccc(OC)nc2)c1` was “inactive”. As to `COc1ccc(C(=O)N2C(=S)NC(=O)/C2=C\c2ccc(C)cc2)cc1`, the “activity change, negative = inhibition” value was “inactive”. Still for that read-out and setting: the same measure for `CCOC(=O)NNc1ccc2nonc2c1[N+](=O)[O-]`: “inactive”; for `COc1ccc(-c2cn[nH]c2-c2ccc(OCC(=O)NN)cc2O)cc1`: “inactive”.
